The values below come from patent US7419997B2, “Tetrahydrocarbazole derivatives and their pharmaceutical use” (SmithKline Beecham Corporation, priority 2003, dated 2008).

For this assay, the system named is episomal HPV16 DNA in W12-20850 cells. Description: W-12 cellular assay (episomal HPV-16 DNA, hybrid capture). In kind it is cell-based, HPV16 (human papillomavirus). Conditions: Human papillomavirus 16, 96 h, four days incubation, episomal HPV-16 DNA quantified by hybrid capture, inhibition relative to untreated control cells. On the procedure: Compounds of the current invention are believed useful in the treatment and/or prophylaxis of conditions and diseases associated with HPV infection. Activity mediated through HPV was determined using the following W-12 cellular assay.
The W12 cell line used contains HPV16 DNA and was derived from a low-grade cervical dysplasia tissue by Margaret Stanley and subsequently clonally selected by Paul Lambert (University of Wisconsin). One of these clones, W12-20850, contains 1000 copies of episomal HPV16 DNA and was used in the cell-based assay. W12-20850 cells were routinely cultured with a gamma-irradiated (6000 rads) feeder layer of 3T3 cells. Assays, however, were run in the absence of a 3T3 feeder layer. W12-20850 and 3T3 cells were routinely split when they were sub-confluent. W12-20850 were grown in W12 Medium which is constituted of 25% DMEM (Gibco BRL, Cat # 12430-047), 75% F12 Media (Gibco BRL, Cat # 11765-021) and 2.5% FBS. The additives include […] Adenine (Sigma, Cat # A-9795), 0.4 mg/ml Hydrocortisone (Calbiochem, Cat # 386698), […] Bovine Insulin (Sigma, Cat # I-1882), 8.4 ng/ml cholera toxin (Fluka, Cat # 26694) and 10 ng/ml EGF (Invitrogen, Cat # 13247-051). 3T3 cells were grown in DMEM containing 10% FBS. Cell lines were incubated at 37° C., in the presence of 5% CO2.
For the assay, W12-20850 cells were seeded into a 96 well plate-containing compound. Plates were incubated at 37° C. in the presence of 5% CO2, for four days. On the fourth day, cells were lysed and the amount of episomal HPV-16 DNA was quantified using a non-radioactive hybrid capture technique with HPV-16 specific capture and detection probes. The percent inhibition relative to untreated control cells was then determined.
The hybrid capture assay is run in a 96 well plate format. Hybridization plates (Nunc Maxisorb Cat # 450320) were coated with a mixture of capture probe and ReactiBind solution for at least 4 hours and then washed with 0.2)(SSC, 0.05% Tween20 (SSCT) prior to blocking with 150 μl/well of 0.2 N NaOH, 1% Igepal, 10 mg/ml hsDNA for 6-8 hours. The hybridization was carried out by mixing 271 μl of lysed cells with 45 μl of denatured detection probe in 6M guanidine isothiocyanate. To prevent evaporation, 50 μl of mineral oil was added to each well. The plate was then heated to 90° C. for 6.5 minutes and the hybridization continued at 42° C. overnight. Assay plates were washed 6 times with SSC/T. Anti-digoxigenin HRP-conjugated Ab (Boehringer Mannheim 1207733, 1:5000) was incubated in the wells for 30 min at room temperature and washed with PBS/0.05% Tween-20. SuperSignal LBA substrate (Pierce Cat # 37070) was added, and chemiluminescence was measured using Wallac 1420 Victor plate reader.

Some results are limits rather than exact numbers.

In the case of `O=C(NC1CCCc2c1[nH]c1ccc(Br)cc21)c1ccc(C(F)(F)F)cc1` (stereo not drawn) [Example 25, N-(6-Bromo-2,3,4,9-tetrahydro-1H-carbazol-1-yl)-4-(trifluoromethyl)benzamide], the IC50 was 58 nM. In the case of `O=C(NC1CCCc2c1[nH]c1ccc(Br)cc21)c1cccc(F)c1` (stereo not drawn) [Example 26, N-(6-Bromo-2,3,4,9-tetrahydro-1H-carbazol-1-yl)-3-fluorobenzamide], the IC50 turned out to be 14 nM. Consider `COc1cccc(C(=O)NC2CCCc3c2[nH]c2ccc(Br)cc32)c1` (stereo not drawn) [Example 27, N-(6-Bromo-2,3,4,9-tetrahydro-1H-carbazol-1-yl)-3-methoxybenzamide], for which the IC50 came to 28 nM. The result for `Cc1cccc(C(=O)NC2CCCc3c2[nH]c2ccc(Br)cc32)c1` (stereo not drawn) [Example 28, N-(6-Bromo-2,3,4,9-tetrahydro-1H-carbazol-1-yl)-3-methylbenzamide] reads 23 nM; that for `O=C(NC1CCCc2c1[nH]c1ccc(Br)cc21)c1ccccc1F` (stereo not drawn) [Example 29, N-(6-Bromo-2,3,4,9-tetrahydro-1H-carbazol-1-yl)-2-fluorobenzamide], 9 nM.

Turning to `COc1ccccc1C(=O)NC1CCCc2c1[nH]c1ccc(Br)cc21` (stereo not drawn) [Example 30, N-(6-Bromo-2,3,4,9-tetrahydro-1H-carbazol-1-yl)-2-methoxybenzamide], the IC50 was > 10000 nM. Take `O=C(NC1CCCc2c1[nH]c1ccc(Br)cc21)c1ccccc1[N+](=O)[O-]` (stereo not drawn) [Example 31, N-(6-Bromo-2,3,4,9-tetrahydro-1H-carbazol-1-yl)-2-nitrobenzamide]: the IC50 is > 7300 nM. As to `O=C(NC1CCCc2c1[nH]c1ccc(Br)cc21)c1ccccc1Cl` (stereo not drawn) [Example 32, N-(6-Bromo-2,3,4,9-tetrahydro-1H-carbazol-1-yl)-2-chlorobenzamide], 1400 nM corresponded to half-maximal inhibition (IC50). The figure for `Cc1ccccc1C(=O)NC1CCCc2c1[nH]c1ccc(Br)cc21` (stereo not drawn) [Example 33, N-(6-Bromo-2,3,4,9-tetrahydro-1H-carbazol-1-yl)-2-methylbenzamide] is 497 nM; for `O=C(NC1CCCc2c1[nH]c1ccccc21)c1ccccc1` (stereo not drawn) [Example 34, N-(2,3,4,9-Tetrahydro-1H-carbazol-1-yl)benzamide] it is > 10000 nM; for `Cc1ccc2[nH]c3c(c2c1)CCCC3NC(=O)c1ccccc1` (stereo not drawn) [Example 35, N-(6-Methyl-2,3,4,9-tetrahydro-1H-carbazol-1-yl)benzamide] it is 184 nM.

In turn, `O=C(NC1CCCc2c1[nH]c1ccc(Cl)cc21)c1ccccc1` (stereo not drawn) [Example 36A, N-(6-Chloro-2,3,4,9-tetrahydro-1H-carbazol-1-yl)benzamide] came in with a half-maximal inhibitory concentration (IC50) of 60 nM. For `O=C(N[C@@H]1CCCc2c1[nH]c1ccc(Cl)cc21)c1ccccc1` [Example 36B, N-[(1R)-6-chloro-2,3,4,9-tetrahydro-1H-carbazol-1-yl]benzamide], the midpoint of inhibition, the IC50, lay at 20 nM. The figure for `O=C(N[C@H]1CCCc2c1[nH]c1ccc(Cl)cc21)c1ccccc1` [Example 36C, N-[(1S)-6-chloro-2,3,4,9-tetrahydro-1H-carbazol-1-yl]benzamide] is > 10000 nM; for `Cc1ccc(S(=O)(=O)NC2CCCc3c2[nH]c2ccc(Br)cc32)cc1` (stereo not drawn) [Example 37, N-(6-Bromo-2,3,4,9-tetrahydro-1H-carbazol-1-yl)-4-methylbenzenesulfonamide] it is 24 nM; for `O=C(NC1CCCc2c1[nH]c1ccc(Br)cc21)c1ccccn1` (stereo not drawn) [Example 38, N-(6-Bromo-2,3,4,9-tetrahydro-1H-carbazol-1-yl)pyridine-2-carboxamide] it is < 10 nM. In turn, `O=C(NC1CCCc2c1[nH]c1ccc(Br)cc21)c1cccnc1` (stereo not drawn) [Example 39, N-(6-Bromo-2,3,4,9-tetrahydro-1H-carbazol-1-yl)nicotinamide] registered an IC50 of 130 nM. The result for `O=C(NC1CCCc2c1[nH]c1ccc(Br)cc21)c1ccc(Cl)nc1` (stereo not drawn) [Example 40, N-(6-Bromo-2,3,4,9-tetrahydro-1H-carbazol-1-yl)-6-chloronicotinamide] reads 24 nM; that for `O=C(NC1CCCc2c1[nH]c1ccc(Br)cc21)c1ccncc1` (stereo not drawn) [Example 41, N-(6-Bromo-2,3,4,9-tetrahydro-1H-carbazol-1-yl)isonicotinamide], 180 nM; that for `O=C(Nc1ccccc1)NC1CCCc2c1[nH]c1ccccc21` (stereo not drawn) [Example 42, N-Phenyl-N′-(2,3,4,9-tetrahydro-1H-carbazol-1-yl)urea], > 10000 nM. As to `Cc1ccc2[nH]c3c(c2c1)CCCC3NC(=O)Nc1ccccc1` (stereo not drawn) [Example 43, N-(6-Methyl-2,3,4,9-tetrahydro-1H-carbazol-1-yl)-N′-phenylurea], the IC50 was > 10000 nM. The figure for `O=C(Nc1ccccc1)NC1CCCc2c1[nH]c1ccc(Cl)cc21` (stereo not drawn) [Example 44, N-(6-Chloro-2,3,4,9-tetrahydro-1H-carbazol-1-yl)-N′-phenylurea] is 1700 nM. The figure for `O=C(NC1CCCc2c1[nH]c1ccc(Cl)cc21)c1ccccn1` (stereo not drawn) [Example 45A, N-(6-Chloro-2,3,4,9-tetrahydro-1H-carbazol-1-yl)-2-pyridinecarboxamide] is 10 nM. In turn, `O=C(N[C@@H]1CCCc2c1[nH]c1ccc(Cl)cc21)c1ccccn1` [Example 45B, N-[(1R)-6-chloro-2,3,4,9-tetrahydro-1H-carbazol-1-yl]pyridine-2-carboxamide] gave an IC50 of 5 nM. The result for `O=C(N[C@H]1CCCc2c1[nH]c1ccc(Cl)cc21)c1ccccn1` [Example 45C, N-[(1S)-6-chloro-2,3,4,9-tetrahydro-1H-carbazol-1-yl]pyridine-2-carboxamide] reads 6000 nM; that for `O=C(NC1CCCc2c1[nH]c1ccc(Cl)cc21)c1ccccc1F` (stereo not drawn) [Example 46A, N-(6-Chloro-2,3,4,9-tetrahydro-1H-carbazol-1-yl)-2-fluorobenzamide], 12 nM. The result for `O=C(N[C@@H]1CCCc2c1[nH]c1ccc(Cl)cc21)c1ccccc1F` [Example 46B, N-[(1R)-6-chloro-2,3,4,9-tetrahydro-1H-carbazol-1-yl]-2-fluorobenzamide] reads 7 nM. The result for `O=C(N[C@H]1CCCc2c1[nH]c1ccc(Cl)cc21)c1ccccc1F` [Example 46C, N-[(1S)-6-chloro-2,3,4,9-tetrahydro-1H-carbazol-1-yl]-2-fluorobenzamide] reads > 3000 nM. Regarding `Cn1cncc1C(=O)NC1CCCc2c1[nH]c1ccc(Cl)cc21` (stereo not drawn) [Example 47, N-(6-Chloro-2,3,4,9-tetrahydro-1H-carbazol-1-yl)-1-methyl-1H-imidazole-5-carboxamide], the IC50 amounted to 810 nM. The result for `Cn1nccc1C(=O)NC1CCCc2c1[nH]c1ccc(Cl)cc21` (stereo not drawn) [Example 48, N-(6-Chloro-2,3,4,9-tetrahydro-1H-carbazol-1-yl)-1-methyl-1H-pyrazole-5-carboxamide] reads 2240 nM; that for `Cn1ccc(C(=O)NC2CCCc3c2[nH]c2ccc(Cl)cc32)n1` (stereo not drawn) [Example 49, N-(6-Chloro-2,3,4,9-tetrahydro-1H-carbazol-1-yl)-1-methyl-1H-pyrazole-3-carboxamide], 1650 nM. The figure for `O=C(NC1CCCc2c1[nH]c1ccc(Cl)cc21)c1c[nH]cn1` (stereo not drawn) [Example 50, N-(6-Chloro-2,3,4,9-tetrahydro-1H-carbazol-1-yl)-1H-imidazole-4-carboxamide] is 440 nM; for `O=C(NC1CCCc2c1[nH]c1ccc(Cl)cc21)c1cc[nH]n1` (stereo not drawn) [Example 51, N-(6-Chloro-2,3,4,9-tetrahydro-1H-carbazol-1-yl)-1H-pyrazole-3-carboxamide] it is 73 nM.

With `O=C(NC1CCCc2c1[nH]c1ccc(Br)cc21)c1c(F)cccc1F` (stereo not drawn) [Example 52, N-(6-bromo-2,3,4,9-tetrahydro-1H-carbazol-1-yl)-2,6-difluorobenzamide], the IC50 turned out to be 45 nM. With `O=S(=O)(NC1CCCc2c1[nH]c1ccc(Br)cc21)c1ccccc1F` (stereo not drawn) [Example 53, N-(6-bromo-2,3,4,9-tetrahydro-1H-carbazol-1-yl)-2-fluorobenzenesulfonamide], half-maximal inhibition (IC50) was put at 51 nM. The result for `O=S(=O)(NC1CCCc2c1[nH]c1ccc(Br)cc21)c1c(F)cccc1F` (stereo not drawn) [Example 54, N-(6-bromo-2,3,4,9-tetrahydro-1H-carbazol-1-yl)-2,6-difluorobenzenesulfonamide] reads 94 nM.
